What was measured:
Carbonic anhydrase 1 = Carbonic anhydrase 1 (Homo sapiens, UniProt P00915); test: Inhibition of recombinant human erythrocyte cytosolic carbonic anhydrase 1 by stopped-flow CO2 hydration assay
Carbonic anhydrase 9 = Carbonic anhydrase 9 (Homo sapiens, UniProt Q16790); test: Inhibition of recombinant human membrane bound carbonic anhydrase 9 by stopped-flow CO2 hydration assay
Carbonic anhydrase 2 = Carbonic anhydrase 2 (Homo sapiens, UniProt P00918); test: Inhibition of recombinant human erythrocyte cytosolic carbonic anhydrase 2 by stopped-flow CO2 hydration assay
Carbonic anhydrase 12 = Carbonic anhydrase 12 (Homo sapiens, UniProt O43570); test: Inhibition of recombinant human membrane bound carbonic anhydrase 12 by stopped-flow CO2 hydration assay
Carbonic anhydrase 12, sequence (O43570 whole entry): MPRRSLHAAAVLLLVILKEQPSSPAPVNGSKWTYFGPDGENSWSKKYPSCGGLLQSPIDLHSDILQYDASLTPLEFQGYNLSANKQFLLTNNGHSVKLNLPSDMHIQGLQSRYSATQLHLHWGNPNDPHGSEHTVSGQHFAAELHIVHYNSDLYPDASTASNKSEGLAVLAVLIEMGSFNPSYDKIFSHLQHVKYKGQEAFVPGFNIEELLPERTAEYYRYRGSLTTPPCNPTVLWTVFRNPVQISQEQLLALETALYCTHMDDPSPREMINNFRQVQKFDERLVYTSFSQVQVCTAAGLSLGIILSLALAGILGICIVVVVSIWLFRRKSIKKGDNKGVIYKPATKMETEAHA

Carbonic anhydrase 1, sequence (P00915 whole entry): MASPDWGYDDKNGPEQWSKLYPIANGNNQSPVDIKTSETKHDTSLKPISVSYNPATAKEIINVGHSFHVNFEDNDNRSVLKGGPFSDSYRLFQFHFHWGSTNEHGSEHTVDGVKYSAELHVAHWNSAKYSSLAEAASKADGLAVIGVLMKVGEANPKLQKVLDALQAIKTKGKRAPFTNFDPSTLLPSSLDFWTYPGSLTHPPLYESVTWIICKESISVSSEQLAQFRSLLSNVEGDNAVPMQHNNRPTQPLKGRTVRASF

| Structure (SMILES) | Ki (Carbonic anhydrase 1) | Ki (Carbonic anhydrase 9) | Ki (Carbonic anhydrase 2) | Ki (Carbonic anhydrase 12) |
| --- | --- | --- | --- | --- |
| NS(=O)(=O)c1ccc(-c2nn3cc(-c4ccc(Br)cc4)nc3s2)cc1 | 0.624 µM | 0.918 µM | 0.681 µM | 0.0848 µM |
| COc1ccc(-c2csc3nc(-c4ccc(S(N)(=O)=O)cc4)nn23)cc1 | 0.0833 µM | 0.147 µM | 0.0151 µM | 0.0223 µM |
| COc1ccc(-c2cn3nc(-c4ccc(S(N)(=O)=O)cc4)sc3n2)cc1 | 0.849 µM | 2.83 µM | 0.83 µM | 0.0038 µM |
| NS(=O)(=O)c1ccc(-c2nc3scc(-c4ccccc4)n3n2)cc1 | 0.0179 µM | 0.262 µM | 0.0181 µM | 0.147 µM |
| NS(=O)(=O)c1ccc(-c2nc3scc(-c4cccc(Br)c4)n3n2)cc1 | 9.51 µM | 1.09 µM | 2.57 µM | 0.0414 µM |
| NS(=O)(=O)c1ccc(-c2nc3scc(-c4ccc(F)cc4)n3n2)cc1 | 0.662 µM | 0.237 µM | 0.301 µM | 0.359 µM |
| NS(=O)(=O)c1ccc(-c2nn3cc(-c4cccc([N+](=O)[O-])c4)nc3s2)cc1 | 0.51 µM | 0.172 µM | 0.274 µM | 0.0504 µM |
| NS(=O)(=O)c1ccc(-c2nn3cc(-c4ccccc4)nc3s2)cc1 | 0.318 µM | 0.208 µM | 0.0073 µM | 0.0041 µM |
| NS(=O)(=O)c1ccc(-c2nn3cc(-c4ccc([N+](=O)[O-])cc4)nc3s2)cc1 | 0.287 µM | 0.306 µM | 0.369 µM | 0.0481 µM |
| NS(=O)(=O)c1ccc(-c2nc3scc(-c4ccc(Cl)cc4)n3n2)cc1 | 0.943 µM | 1.68 µM | 0.529 µM | 0.0267 µM |
| NS(=O)(=O)c1ccc(-c2nn3cc(-c4cccc(Br)c4)nc3s2)cc1 | 0.276 µM | 0.251 µM | 0.0676 µM | 0.0756 µM |
| NS(=O)(=O)c1ccc(-c2nc3scc(-c4ccc(-c5ccccc5)cc4)n3n2)cc1 | 0.0975 µM | 0.133 µM | 0.0223 µM | 0.297 µM |
| Cc1ccc(-c2cn3nc(-c4ccc(S(N)(=O)=O)cc4)sc3n2)cc1 | 0.243 µM | 0.275 µM | 0.24 µM | 0.0033 µM |
| NS(=O)(=O)c1ccc(-c2nc3scc(-c4ccc(Br)cc4)n3n2)cc1 | 9.7 µM | 0.172 µM | 6.35 µM | 0.302 µM |
| NS(=O)(=O)c1ccc(-c2nn3cc(-c4ccc(Cl)cc4)nc3s2)cc1 | 0.5 µM | 1.21 µM | 0.244 µM | 0.0801 µM |
| NS(=O)(=O)c1ccc(-c2nn3cc(-c4ccc(F)cc4)nc3s2)cc1 | 0.218 µM | 0.136 µM | 0.0562 µM | 0.0794 µM |
| NS(=O)(=O)c1ccc(-c2nc3scc(-c4ccc([N+](=O)[O-])cc4)n3n2)cc1 | 9.33 µM | 0.189 µM | 3.87 µM | 0.0351 µM |
| NS(=O)(=O)c1ccc(-c2nn3cc(-c4ccc(-c5ccccc5)cc4)nc3s2)cc1 | 0.0355 µM | 0.143 µM | 0.368 µM | 0.0621 µM |
| Cc1ccc(-c2csc3nc(-c4ccc(S(N)(=O)=O)cc4)nn23)cc1 | 0.0798 µM | 0.0851 µM | 0.0195 µM | 0.0238 µM |
| NS(=O)(=O)c1ccc(-c2nc3scc(-c4cccc([N+](=O)[O-])c4)n3n2)cc1 | 0.0643 µM | 0.203 µM | 0.0132 µM | 0.362 µM |

Source: ChEMBL document CHEMBL3875222, “Benzenesulfonamide bearing imidazothiadiazole and thiazolotriazole scaffolds as potent tumor associated human carbonic anhydrase IX and XII inhibitors” (Bioorg Med Chem, 2017)
